Measurements: ChEMBL document CHEMBL1128289, “Reductive chemistry of the novel hypoxia-selective cytotoxin 5-[N,N-bis(2-chloroethyl)amino]-2,4-dinitrobenzamide” (J Med Chem, 1995)

Legend:
CHO-AA8 = assay: Cytotoxicity in a growth inhibition assay against aerobic cultures of AA8 cells was determined; type: functional, cell-based, Cricetulus griseus
UV4 = assay: Cytotoxicity in a growth inhibition assay against aerobic cultures of UV4 cells was determined; type: functional, cell-based; conditions: Cricetulus griseus

Row | Compound | IC50 (CHO-AA8; Cricetulus griseus, CHO-AA8) [µM] | IC50 (UV4) [µM] | IC50 (CHO-AA8; cho-aa8) [µM]
1 | NC(=O)c1cc2c(cc1[N+](=O)[O-])NCCN2CCCl | 730 | 49 | –
2 | NC(=O)c1cc2c(cc1N)NCCN2CCCl | 6.9 | 0.87 | –
3 | NC(=O)c1cc(N(CCCl)CCCl)c([N+](=O)[O-])cc1[N+](=O)[O-] | – | 960 | 1600
4 | NC(=O)c1cc(N(CCO)CCO)c(N)cc1N | 2300 | 3000 | –
